Data reported in article PMC8290497, “Taxifolin, an Inhibitor of Sortase A, Interferes With the Adhesion of Methicillin-Resistant Staphylococcal aureus” (Frontiers in Microbiology, 2021).

Legend:
HEK293 cells = test: CCK-8 cytotoxicity assay, HEK293; assay type: cell-based
Procedure: (§1) Cytotoxicity was determined using a cell counting kit-8 assay (CCK-8, US EVERBRIGHT, Suzhou, China), as described previously ([Xiao et al., 2018]). HEK293 or HepG2 cells were seeded in 96-well plates (Corning, United States) at a density of 5 × 10^4 cells/well, then incubated at 37°C in an atmosphere containing 5% CO2 for 24 h. The culture medium was then exchanged with fresh medium containing different concentrations of Tax (0–200 μM) or vehicle and incubated for an additional 24 h. CCK-8 solution (10 μL) was carefully added then incubated for 4 h in an incubator at 37°C. The OD value at 450 nm was measured to calculate cell viability.
(§2) FIGURE 2 Growth curve and cytotoxicity. (A) Growth curves of S. aureus USA300 and the ΔsrtA group with different concentrations of Tax. (B) Growth rate of S. aureus USA300 and S. aureus treated with Tax (25 μM). (C) Percent cell viability of HEK293 (purple) and HepG2 (blue) cells were measured using a CCK-8 assay after incubation with Tax for 24 h.

S. aureus SrtA = target: T1, S. aureus SrtA (Staphylococcus aureus, UniProt Q2FV99); test: FRET assay of SrtA transpeptidation (cleavage of Abz-LPATG-Dap(Dnp)-NH2); assay type: biochemical
T1 construct: 6xHis; made in house; host or cells: E. coli BL21 (DE3), plasmid pET28a-SrtA
Procedure: Fluorescence resonant energy transfer (FRET) was used to determine the effect of Tax on SrtA, as described previously ([Kruger et al., 2002]). Briefly, 4 μM purified recombinant SrtA was combined with various concentrations of Tax then added to assay buffer consisting of 50 mM Tris-HCl, 5 mM CaCl2, 150 mM NaCl, at pH 7.5, to a final volume of 200 μL. Following incubation of the mixture at 37°C for 1 h, substrate peptide was added to a final concentration of 10 μM and incubated for an additional 30 min. Fluorescence intensity was measured at excitation and emission wavelengths of 309 and 420 nm, respectively.
(§3) To identify novel inhibitors of SrtA, an in-house library containing 420 natural compounds was screened, using a FRET assay. […] To further clarify the interacting way of SrtA and Tax, recombinant SrtA was reacted with Tax at a concentration of 10-fold IC50. A total of 85.80 ± 0.67% of SrtA activity was subsequently recovered, compared with the control group (DMSO) (Figure 1C).
FIGURE 1 Inhibition of SrtA transpeptidation. (A) Chemical structure of Tax. […] Each reaction condition was assayed in triplicate from which the IC50 was determined. (C) Recombinant SrtA was treated with 10 × IC50 of Tax and then diluted, after which transpeptidation activity was measured using a FRET assay. […]

HepG2 cells = test: CCK-8 cytotoxicity assay, HepG2; assay type: cell-based
Procedure: as §1, §2

SrtA [1] = target: T2, SrtA (Staphylococcus aureus, UniProt Q2FV99); test: Localized surface plasmon resonance (LSPR); assay type: binding
T2 construct: 6xHis; made in house; host or cells: E. coli BL21 (DE3), plasmid pET28a-SrtA
Procedure: The interaction between Tax and SrtA was determined using an OpenSPR localized surface plasmon resonance (LSPR) instrument (Nicoya, Canada) at 25°C, as described previously ([Panneer Selvam et al., 2018]; [Song et al., 2019]). Briefly, SrtA proteins were captured on a COOH chip using a standard amine coupling system. A 200 μL aliquot of blocking buffer was added to rinse the sample ring and to remove any air. After a stable baseline had been achieved, the affinity between Tax and SrtA was measured by injecting 20, 40, 80, 160, or 320 μM Tax. The kinetic parameters of the binding reaction were calculated and visualized using TraceDrawer software ([Yang et al., 2011]).
FIGURE 4 Expression of SrtA in the presence of Tax and the interaction of different concentrations of Tax with SrtA. (A) Western blot analysis of SrtA protein from S. aureus treated with various concentrations of Tax and grayscale analysis of SrtA protein bands. (B) LSPR analysis verified the binding affinity of Tax with SrtA. Error bars represent means ± SD of three replicates. ***P < 0.001 calculated with a two-tailed Student’s t-test.

SrtA [2] = target: T2, SrtA; test: Reversibility of SrtA inhibition (10 × IC50, dilution, FRET assay); assay type: biochemical; conditions: SrtA treated with 10-fold IC50 of Tax then diluted; compared with control group (DMSO)
Source text: as §3
FIGURE 1 Inhibition of SrtA transpeptidation. (A) Chemical structure of Tax. (B) Tax inhibits SrtA cleavage of a fluorogenic peptide substrate (Abz-LPATG-Dnp-NH2) in a dose-dependent manner in vitro. Each reaction condition was assayed in triplicate from which the IC50 was determined. (C) Recombinant SrtA was treated with 10 × IC50 of Tax and then diluted, after which transpeptidation activity was measured using a FRET assay. Untreated SrtA (Control) represented 100% activity.

[3] = test system: internalization of S. aureus into A549 cells; test: Invasion assay of S. aureus into A549 cells; assay type: cell-based, Staphylococcus aureus; conditions: 200 μM Tax; P < 0.001
Procedure: A549 human lung carcinoma cells were seeded at a density of 2.5 × 10^5 per well in 24-well plates and placed in an incubator at 37°C in an atmosphere containing 5% CO2 for 20 h. Cultures of S. aureus were mixed with different concentrations of Tax then cultured at 37°C until an OD600 of 1.0 was achieved. The A549 cells were resuspended in medium and aliquots of bacterial suspension were added to each well to a total concentration of 2 × 10^7°CFU/mL. After incubation for 2 h, the invasion assay was terminated by incubation with 300 μg/mL gentamicin for 30 min. The cells were then lysed after washing and coated on a BHI agar plate. After incubation at 37°C for 12 h, the number of CFUs were counted manually.
FIGURE 3 Effect of SrtA inhibitor on virulence-related phenotypes in S. aureus Newman strain. (A) Impact of Tax on the ability of S. aureus to adhere to fibrinogen. (B) Biofilm formation of S. aureus in the presence of different concentrations of Tax. (C) Mature biofilms of S. aureus in the presence of different concentrations of Tax. The ΔsrtA group represented the positive control. (D) Tax affects internalization of S. aureus into A549 cells. […] The number of viable S. aureus in the cells was quantified by serial dilution on TSA agar plates. […] Error bars represent means ± SD of three replicates. *P < 0.05, **P < 0.01, ***P < 0.001 calculated with a two-tailed Student’s t-test.

T2 sequence (Q2FV99 whole entry): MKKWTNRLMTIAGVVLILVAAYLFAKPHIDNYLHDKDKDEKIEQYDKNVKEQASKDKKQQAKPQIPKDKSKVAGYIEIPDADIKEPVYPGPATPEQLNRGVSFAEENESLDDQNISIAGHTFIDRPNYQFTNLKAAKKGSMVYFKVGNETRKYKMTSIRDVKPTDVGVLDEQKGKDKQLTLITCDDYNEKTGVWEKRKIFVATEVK
T1 sequence (Q2FV99 whole entry): as above

O=C1c2c(O)cc(O)cc2OC(c2ccc(O)c(O)c2)C1O (stereo not drawn) [Tax, taxifolin]
toxicity toward mammalian cells (HEK293) (HEK293 cells; 200 μM): did not display toxicity | cytotoxicity toward HEK293 cells (HEK293 cells; at 24.53 ± 0.42 μM, 24 h): no significant cytotoxicity | IC50 (S. aureus SrtA): 24.5 ± 0.42 µM | toxicity toward mammalian cells (HepG2) (HepG2 cells; 200 μM): did not display toxicity | cytotoxicity toward HepG2 cells (HepG2 cells; at 24.53 ± 0.42 μM, 24 h): no significant cytotoxicity | Kd (SrtA [1]): 165 µM | kon (SrtA [1]; read-out: Ka): 22.3 M⁻¹ s⁻¹ | SrtA activity recovered (SrtA [2]): 85.80 ± 0.67% | number of bacteria entering A549 cells [3]: reduced significantly
